Results as given in ChEMBL document CHEMBL5154826, “Discovery of the Clinical Candidate MAK683: An EED-Directed, Allosteric, and Selective PRC2 Inhibitor for the Treatment of Advanced Malignancies” (J Med Chem, 2022).
Values after ≈ are worked out from the molar mass of the structure shown. Active and inactive are the calls of the source. No cut-off for these calls is given here.

Legend:
[1] = High throughput solubility of the compound at pH 6.8 after 16 to 24 hrs by MS/MS analysis; format: physicochemical; details: buffer, time 16-24 hrs
Cytochrome P450 2D6 = Cytochrome P450 2D6 (Homo sapiens, UniProt P10635); test: Inhibition of CYP2D6 in human liver microsomes using bufuralol as substrate incubated for 10 mins in presence of NADPH by LC-MS/MS analysis; format: ADME, Microsome
Chain of Cytochrome P450 2D6 (P10635 whole entry, the tested form may be a part): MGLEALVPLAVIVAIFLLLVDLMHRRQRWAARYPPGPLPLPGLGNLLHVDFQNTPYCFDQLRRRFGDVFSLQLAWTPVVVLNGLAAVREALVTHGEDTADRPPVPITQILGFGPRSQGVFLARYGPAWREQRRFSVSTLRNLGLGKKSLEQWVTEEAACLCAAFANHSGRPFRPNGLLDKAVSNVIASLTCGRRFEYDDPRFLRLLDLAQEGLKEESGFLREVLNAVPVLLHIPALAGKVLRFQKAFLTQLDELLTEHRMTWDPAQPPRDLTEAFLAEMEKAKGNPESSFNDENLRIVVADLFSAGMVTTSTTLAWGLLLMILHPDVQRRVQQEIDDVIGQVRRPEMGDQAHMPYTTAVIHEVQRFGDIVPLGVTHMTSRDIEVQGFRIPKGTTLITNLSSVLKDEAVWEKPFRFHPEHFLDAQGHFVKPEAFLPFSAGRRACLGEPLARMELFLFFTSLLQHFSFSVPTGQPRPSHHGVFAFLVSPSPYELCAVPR

[2] = Inhibition of PRC2 (unknown origin) assessed as reduction in H3K27 trimethylation using H3K27Me0 peptide (21 to 44 residues) as substrate by measuring SAH formation by LC-MS analysis; parameters: species or system Homo sapiens
Pfeiffer = test: Antiproliferative activity against human Pfeiffer cells assessed as inhibition of cell growth after 6 days by celltitre-glo assay; format: functional; details: 144 h, time 6 day
cells = details: Homo sapiens, G-401, 48 h
Description: Inhibition of PRC2 in human G-401 cells assessed as H3K27 methylation status incubated for 48 hrs by ELISA method

[3] = biological target: T1, Alpha-2C adrenergic receptor (Homo sapiens, UniProt P18825); test: Inhibition of alpha2c adrenergic receptor (unknown origin)
T1 sequence (P18825 whole entry): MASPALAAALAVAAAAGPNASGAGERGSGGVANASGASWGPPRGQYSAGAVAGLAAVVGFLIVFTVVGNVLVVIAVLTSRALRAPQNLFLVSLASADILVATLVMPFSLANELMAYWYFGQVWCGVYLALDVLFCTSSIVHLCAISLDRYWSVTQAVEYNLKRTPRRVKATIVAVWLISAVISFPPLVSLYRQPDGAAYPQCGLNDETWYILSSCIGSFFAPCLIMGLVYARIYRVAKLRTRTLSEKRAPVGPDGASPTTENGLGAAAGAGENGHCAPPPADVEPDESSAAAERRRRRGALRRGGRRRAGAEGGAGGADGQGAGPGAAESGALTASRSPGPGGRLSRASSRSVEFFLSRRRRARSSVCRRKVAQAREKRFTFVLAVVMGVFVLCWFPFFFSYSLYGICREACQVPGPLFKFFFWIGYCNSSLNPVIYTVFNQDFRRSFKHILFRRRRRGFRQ

KARPAS-422 [4] = test: Antiproliferative activity against human KARPAS-422 cells expressing EZH2 mutant assessed as inhibition of cell growth after 14 days by beckman coulter counting method; format: functional; details: Homo sapiens, KARPAS-422, 336 h; time 14 day
[5] = Lipophilicity, logD of the compound at pH 7.4 by LC with tandem MS analysis; format: physicochemical; details: buffer, read-out: logD
[6] = Dissociation constant, pKa of compound; format: physicochemical
Cytochrome P450 2C9 = Cytochrome P450 2C9 (Homo sapiens, UniProt P11712); test: Inhibition of CYP2C9 in human liver microsomes using diclofenac as substrate incubated for 10 mins in presence of NADPH by LC-MS/MS analysis; format: ADME, Microsome
Chain of Cytochrome P450 2C9 (P11712 whole entry): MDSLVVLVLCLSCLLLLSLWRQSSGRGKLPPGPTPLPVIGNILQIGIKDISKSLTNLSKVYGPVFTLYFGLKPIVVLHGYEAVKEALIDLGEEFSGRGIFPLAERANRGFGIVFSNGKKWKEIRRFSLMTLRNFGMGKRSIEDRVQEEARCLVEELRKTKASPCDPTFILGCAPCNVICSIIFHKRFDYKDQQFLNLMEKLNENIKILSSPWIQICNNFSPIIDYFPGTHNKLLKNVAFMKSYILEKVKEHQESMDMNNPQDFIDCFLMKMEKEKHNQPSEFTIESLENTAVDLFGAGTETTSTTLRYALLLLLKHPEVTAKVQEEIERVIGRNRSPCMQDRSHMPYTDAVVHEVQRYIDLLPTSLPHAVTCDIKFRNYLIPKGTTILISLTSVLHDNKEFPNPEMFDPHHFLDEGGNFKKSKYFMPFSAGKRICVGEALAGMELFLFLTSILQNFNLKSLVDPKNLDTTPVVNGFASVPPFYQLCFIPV

[7] = biological target: 3',5'-cyclic-AMP phosphodiesterase 4D (Homo sapiens, UniProt Q08499); test: Inhibition of human Phosphodiesterase 4D
Chain of 3',5'-cyclic-AMP phosphodiesterase 4D (Q08499 whole entry): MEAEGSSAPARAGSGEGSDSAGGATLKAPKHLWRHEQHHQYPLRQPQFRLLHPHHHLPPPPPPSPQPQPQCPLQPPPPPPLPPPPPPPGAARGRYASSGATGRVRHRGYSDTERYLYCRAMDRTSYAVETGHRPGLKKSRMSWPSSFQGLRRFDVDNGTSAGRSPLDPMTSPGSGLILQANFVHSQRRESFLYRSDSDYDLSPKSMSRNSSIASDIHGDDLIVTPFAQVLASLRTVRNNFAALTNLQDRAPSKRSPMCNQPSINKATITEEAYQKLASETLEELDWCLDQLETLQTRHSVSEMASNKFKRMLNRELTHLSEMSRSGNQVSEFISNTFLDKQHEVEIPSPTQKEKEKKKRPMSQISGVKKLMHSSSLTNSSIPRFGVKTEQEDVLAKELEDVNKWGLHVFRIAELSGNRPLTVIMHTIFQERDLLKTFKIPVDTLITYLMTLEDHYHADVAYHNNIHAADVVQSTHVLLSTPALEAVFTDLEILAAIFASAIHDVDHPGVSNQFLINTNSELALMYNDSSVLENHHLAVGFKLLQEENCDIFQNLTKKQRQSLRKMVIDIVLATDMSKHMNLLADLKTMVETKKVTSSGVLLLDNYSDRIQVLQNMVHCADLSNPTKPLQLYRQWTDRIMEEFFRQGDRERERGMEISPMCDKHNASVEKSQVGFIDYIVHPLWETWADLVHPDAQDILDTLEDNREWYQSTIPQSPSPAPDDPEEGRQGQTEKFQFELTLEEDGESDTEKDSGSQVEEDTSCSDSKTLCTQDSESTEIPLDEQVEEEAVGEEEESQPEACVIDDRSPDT

KARPAS-422 [8] = test: Antitumor activity against human Karpas-422 cells xenografted Athymic BALB/c nude mouse assessed as effect on tumor growth, at 10 to 300 mg/kg, po bid, treatment started at twenty fifth after implantation of cancer cells measured upto 55 days; format: functional, organism-based; details: dose 10-300 mg/kg, time <= 55.0 day, DDE = dose-dependent effect
Mus musculus [9] = test: Reduction of […] in tumor of human Karpas-422 cells xenografted Athymic BALB/c nude mouse tumor at 3 to 300 mg/kg, po bid for 10 days; format: functional, organism-based; details: dose 3-300 mg/kg, time 10.0 day, DDE = dose-dependent effect
Mus musculus [10] = test: Reduction of H3K27 level in tumor of human Karpas-422 cells xenografted Athymic BALB/c nude mouse at 3 to 300 mg/kg, po bid for 21 days; format: functional, organism-based; details: dose 3-300 mg/kg, time 21.0 day, DDE = dose-dependent effect
Mus musculus [11] = test: Reduction of H3K27 level in tumor of human Karpas-422 cells xenografted Athymic BALB/c nude mouse at 3 to 100 mg/kg, po bid measured after 14 days; format: functional, organism-based; details: dose 3-100 mg/kg, time 14.0 day, DDE = dose-dependent effect
KARPAS-422 [12] = test: Antitumor activity against human Karpas-422 cells xenografted Athymic NTac:NIH-Whn nude rat assessed as inhibition of cell growth at 0.3 to 60 mg/kg, po, qd upto 130 days; format: functional, organism-based; details: dose 0.3-60 mg/kg, time <= 130.0 day
PBMC [13] = test: In vivo inhibition of PRC2 in PBMC collected from human Karpas-422 cells xenografted Athymic NTac:NIH-Whn nude rat assessed as reduction in H3K27me3 level at 30 mg/kg, po, qd upto 4 weeks by FACS method; format: functional, organism-based; details: TDE = time-dependent effect
PBMC [14] = test: In vivo inhibition of PRC2 in PBMC collected from human Karpas-422 cells xenografted Athymic NTac:NIH-Whn nude rat assessed as complete recovery of H3K27me3 level at 30 mg/kg, po, qd treated for 4 weeks, followed by 4 weeks recovery period by FACS method; format: functional, organism-based
Mus musculus [15] = test: Reduction of H3K27 level in tumor of human Karpas-422 cells xenografted Athymic BALB/c nude mouse tumor at 20 mg/kg, po qd measured after 14 days; format: functional, organism-based; details: time 14.0 day
[16] = High throughput solubility of the compound at pH 7 after 16 to 24 hrs by MS/MS analysis; format: physicochemical; details: buffer, time 16-24 hrs
[17] = High throughput solubility of the compound at pH 4 after 16 to 24 hrs by MS/MS analysis; format: physicochemical; details: buffer, time 16-24 hrs
[18] = Permeability across apical to basolateral side in human Caco-2 cells at 10 uM incubated for 2 hrs by LC/MS/MS analysis; format: ADME, cell-based; details: Caco-2, read-out: permeability
[19] = Efflux ratio of apparent permeability across basolateral to apical side over apical to basolateral side in human Caco-2 cells at 10 uM incubated for 2 hrs by LC/MS/MS analysis; format: ADME, cell-based
[20] = Dose normalized AUC in Sprague-Dawley rat at 2 mg/kg, po; format: ADME, organism-based; details: in vivo
[21] = Terminal half life in Sprague-Dawley rat at 2 mg/kg, po; format: ADME, organism-based; details: in vivo, read-out: beta t1/2 (converted)
[22] = Oral bioavailability in Sprague-Dawley rat at 2 mg/kg; format: ADME, organism-based; details: in vivo
Cytochrome P450 3A4 = Cytochrome P450 3A4 (Homo sapiens, UniProt P08684); test: Inhibition of CYP3A4 in human liver microsomes using midazolam as substrate incubated for 10 mins in presence of NADPH by LC-MS/MS analysis; format: ADME, Microsome
Chain of Cytochrome P450 3A4 (P08684 whole entry): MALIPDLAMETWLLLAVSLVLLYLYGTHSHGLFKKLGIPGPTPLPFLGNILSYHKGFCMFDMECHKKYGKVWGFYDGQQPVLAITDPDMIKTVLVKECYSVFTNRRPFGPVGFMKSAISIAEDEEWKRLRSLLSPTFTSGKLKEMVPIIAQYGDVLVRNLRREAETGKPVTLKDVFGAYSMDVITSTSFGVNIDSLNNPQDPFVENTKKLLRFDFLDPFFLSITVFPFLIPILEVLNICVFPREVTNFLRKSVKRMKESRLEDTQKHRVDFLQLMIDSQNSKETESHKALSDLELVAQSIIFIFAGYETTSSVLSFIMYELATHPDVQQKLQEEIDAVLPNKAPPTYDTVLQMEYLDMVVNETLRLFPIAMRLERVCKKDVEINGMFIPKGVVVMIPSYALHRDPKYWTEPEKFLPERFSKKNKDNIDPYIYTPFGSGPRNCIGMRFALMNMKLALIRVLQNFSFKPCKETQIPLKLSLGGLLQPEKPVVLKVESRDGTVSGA

**Q.** Which solubility [1] does the source give for `Fc1ccc2c(c1CNc1ncc(-c3cccnc3)c3nncn13)CCO2` here?
**A.** 85 µM (≈ 30.8 µg/mL)

**Q.** What about the IC50 (Cytochrome P450 2D6) of the same compound?
**A.** 19 nM

**Q.** For `CN(C)Cc1ccc(-c2cnc(NCc3cccc4c3OCO4)n3cnnc23)cc1`, which IC50 [2] is on record?
**A.** 15 µM

**Q.** And the GI50 (Pfeiffer)?
**A.** 1300 nM

**Q.** What about the IC50 (cells) of the same compound?
**A.** 260 µM

**Q.** With `CN(C)Cc1ccc(-c2cnc(NCc3cccc4c3OCC4)n3cnnc23)cc1` as the compound, how does the IC50 [2] read?
**A.** 2600 µM

**Q.** Which IC50 [2] does the source give for `Cc1ccc(-c2cnc(NCc3c(F)ccc4c3CCO4)n3cnnc23)cn1` here?
**A.** 0.019 µM

**Q.** And the solubility [1]?
**A.** 112 µM (≈ 42.2 µg/mL)

**Q.** What about the IC50 (Cytochrome P450 2D6) of the same compound?
**A.** 7400 nM

**Q.** For `c1cc(CNc2ncc(-c3ccncc3)c3nncn23)c2c(c1)OCC2`, which IC50 [3] is on record?
**A.** > 30 µM

**Q.** And the IC50 [2]?
**A.** 0.017 µM

**Q.** What about the GI50 (KARPAS-422 [4]) of the same compound?
**A.** 10 nM

**Q.** What about the logD [5] of the same compound?
**A.** 2.5

**Q.** And the pKa [6]?
**A.** 5.4

**Q.** What about the solubility [1] of the same compound?
**A.** 5 µM (≈ 1.72 µg/mL)

**Q.** And the IC50 (Cytochrome P450 2C9)?
**A.** > 50 µM

**Q.** What about the IC50 (Cytochrome P450 2D6) of the same compound?
**A.** 200 nM

**Q.** What about the IC50 [7] of the same compound?
**A.** 10 µM

**Q.** For `CN(C)Cc1ccc(-c2cnc(NCc3cccc4c3CCO4)n3cnnc23)cc1`, which IC50 [2] is on record?
**A.** 20 µM

**Q.** And the GI50 (Pfeiffer)?
**A.** 67 nM

**Q.** What about the IC50 (cells) of the same compound?
**A.** 14 µM

**Q.** For `COc1cccc(F)c1CNc1ccc(-c2ccc(C)nc2C)c2nncn12`, which IC50 [2] is on record?
**A.** 0.023 µM

**Q.** And the solubility [1]?
**A.** 162 µM (≈ 61.1 µg/mL)

**Q.** And the IC50 (Cytochrome P450 2D6)?
**A.** 25000 nM

**Q.** With `COc1cccc(CNc2ncc(-c3ccc(CN(C)C)cc3)c3nncn23)c1` as the compound, how does the IC50 [2] read?
**A.** 110 µM

**Q.** And the GI50 (Pfeiffer)?
**A.** 2970 nM

**Q.** And the IC50 (cells)?
**A.** 320 µM

**Q.** For `COc1cccc(F)c1CNc1ccc(-c2cccnc2C)c2nncn12`, which IC50 [2] is on record?
**A.** 0.011 µM

**Q.** What about the solubility [1] of the same compound?
**A.** 265 µM (≈ 96.3 µg/mL)

**Q.** And the IC50 (Cytochrome P450 2D6)?
**A.** > 50000 nM

**Q.** Which IC50 [2] does the source give for `COc1cccc(F)c1CNc1ccc(-c2cccnc2)c2nncn12` here?
**A.** 0.016 µM

**Q.** What about the solubility [1] of the same compound?
**A.** 22 µM (≈ 7.69 µg/mL)

**Q.** What about the IC50 (Cytochrome P450 2D6) of the same compound?
**A.** 400 nM

**Q.** Which IC50 [2] does the source give for `Cc1ccc(-c2cnc(NCc3c(F)ccc4c3CCO4)n3cnnc23)c(C)n1` here?
**A.** 0.005 µM

**Q.** And the solubility [1]?
**A.** 308 µM (≈ 120 µg/mL)

**Q.** What about the IC50 (Cytochrome P450 2D6) of the same compound?
**A.** 31000 nM

**Q.** What does the source list for `Cc1ncccc1-c1cnc(NCc2c(F)ccc3c2CCO3)n2cnnc12`?
**A.** Activity (KARPAS-422 [8]): Dde; Activity (Mus musculus [9]): Dde; Activity (Mus musculus [10]): Dde; Activity (Mus musculus [11]): Dde; Activity (KARPAS-422 [12]): Active; inhibition (PBMC [13]): Tde; inhibition (PBMC [14]): Active; Activity (Mus musculus [15]): Active

**Q.** Which solubility [16] does the source give for `Cc1ncccc1-c1cnc(NCc2c(F)ccc3c2CCO3)n2cnnc12.Cl` here?
**A.** 69 µM

**Q.** And the solubility [17]?
**A.** 494 µM

**Q.** What does the source list for `c1cncc(-c2cnc(NCc3cccc4c3CCO4)n3cnnc23)c1`?
**A.** IC50 [3]: 3.9 µM; IC50 [2]: 0.024 µM; GI50 (KARPAS-422 [4]): 12 nM; logD [5]: 2.6; pKa [6]: 4.5; solubility [1]: 15 µM (≈ 5.17 µg/mL); Papp A→B at 2 h, 10 µM [18]: 30 ×10⁻⁶ cm/s; efflux ratio at 2 h, 10 µM [19]: 0.96; AUC/dose [20]: 5790 nM·h; half-life [21]: 90 min; bioavailability [22]: 71%; IC50 (Cytochrome P450 3A4): 29 µM; IC50 (Cytochrome P450 2C9): 12 µM; IC50 (Cytochrome P450 2D6): 100 nM; IC50 [7]: 2.6 µM; IC50 (cells): 0.033 µM
